Results from patent US20260327191A1, “GSK3a INHIBITORS AND METHODS OF USE THEREOF” (Blueprint Medicines Corporation, priority 2023, published 2026).
Where a name gives a salt, the structure may show the parent alone. Read-outs that look alike come from different tables or passages of the source.

How the values were obtained:
GSK3α or GSK3B = assay: Measured Km for ATP in the GSK3 in vitro enzymatic activity assay; assay type: biochemical, human; settings: role: substrate; 100 mM HEPES pH 7.5, 10 mM MgCl2; 1.0 μM peptide substrate (5-FAM-KRREILSRRPpSYR-COOH); 25° C.
Method: Full length human GSK3α or GSK3B expressed as N-terminal GST fusion proteins in baculovirus host were purchased from Carna Biosciences (Japan). The kinase was pre-incubated with ATP (adenosine-5′-triphosphate) for 45 min, then incubated with tested compounds for another 45 min in assay buffer that contains 100 mM HEPES (N-2-hydroxyethylpiperazine-N′-2-ethanesulfonic acid), pH 7.5, 10 mM MgCl2, 1.0 mM DTT, and 0.015% Briji-35. […] Percent inhibition was plotted against compound concentration to generate 10-point dose response curve with 3-fold serial dilution starting from 10 μM. IC50 value was determined from the 4-parameter logistic curve fitting.

human GSK3α = target: T1, human GSK3α (Homo sapiens, UniProt P49840); assay: In vitro enzymatic activity assay, GSK3α; assay type: biochemical; settings: 1.0 mM ATP, 1.0 μM peptide substrate, 120 min, 25° C
T1 construct: Full length human GSK3α or GSK3B expressed as N-terminal GST fusion proteins; GST (N); purchased Carna Biosciences (Japan); host or cells: baculovirus host

GSK3A = target: T2, GSK3A (Homo sapiens, UniProt P49840); assay: NanoBRET cellular target engagement assay, Nanoluc-GSK3A in HEK293 cells; assay type: cell-based; settings: NanoBRET GSK3α IC50, HEK293 cells, tracer K-8, 2 hours, 37° C
T2 construct: expressed in transfected cells

GSK3B [1] = target: T3, GSK3B (Homo sapiens, UniProt P49841); assay: NanoBRET cellular target engagement assay, Nanoluc-GSK3B in HEK293 cells; assay type: cell-based; design: expressed in transfected cells; settings: NanoBRET GSK3β IC50, HEK293 cells, tracer K-8, 2 hours, 37° C
GSK3B [2] = target: T3, GSK3B; assay: In vitro enzymatic activity assay, GSK3β; assay type: biochemical; design: Full length human GSK3α or GSK3B expressed as N-terminal GST fusion proteins; GST (N); purchased Carna Biosciences (Japan); host or cells: baculovirus host; settings: 1.0 mM ATP, 1.0 μM peptide substrate, 120 min, 25° C
GSK3α knockout mice = settings: blockade of autophagy and mTOR pathway activation; cited from earlier work

T3 sequence (P49841 whole entry, the tested form may be a part): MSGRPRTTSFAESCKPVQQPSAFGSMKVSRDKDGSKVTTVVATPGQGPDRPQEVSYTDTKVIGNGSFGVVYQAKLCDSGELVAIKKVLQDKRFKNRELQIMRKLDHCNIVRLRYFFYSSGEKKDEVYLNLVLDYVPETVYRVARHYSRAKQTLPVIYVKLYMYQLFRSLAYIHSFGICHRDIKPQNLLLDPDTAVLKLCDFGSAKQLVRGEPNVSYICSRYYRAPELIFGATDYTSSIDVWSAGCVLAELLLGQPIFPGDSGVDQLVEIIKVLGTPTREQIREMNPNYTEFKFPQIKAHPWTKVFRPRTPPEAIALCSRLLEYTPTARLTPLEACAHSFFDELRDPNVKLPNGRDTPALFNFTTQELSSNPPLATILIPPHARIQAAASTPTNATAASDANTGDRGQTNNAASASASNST
T1 sequence (P49840 whole entry, the tested form may be a part): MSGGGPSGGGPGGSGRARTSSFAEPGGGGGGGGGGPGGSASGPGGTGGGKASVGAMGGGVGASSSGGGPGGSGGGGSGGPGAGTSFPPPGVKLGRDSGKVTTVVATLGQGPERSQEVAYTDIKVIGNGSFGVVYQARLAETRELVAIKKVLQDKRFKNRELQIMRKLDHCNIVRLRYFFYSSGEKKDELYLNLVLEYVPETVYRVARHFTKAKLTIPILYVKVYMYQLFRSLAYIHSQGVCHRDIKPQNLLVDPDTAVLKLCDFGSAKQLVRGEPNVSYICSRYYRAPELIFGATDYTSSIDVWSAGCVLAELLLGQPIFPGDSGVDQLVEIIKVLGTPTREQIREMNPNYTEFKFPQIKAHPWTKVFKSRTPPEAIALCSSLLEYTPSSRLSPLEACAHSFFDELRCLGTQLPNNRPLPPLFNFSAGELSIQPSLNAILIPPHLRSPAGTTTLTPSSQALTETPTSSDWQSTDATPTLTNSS
T2 sequence (P49840 whole entry): as the sequence (P49840 whole entry, the tested form may be a part) above

SMILES | IC50 (human GSK3α; read-out: Enzyme GSK3α (IC50)) [nM] | IC50 (GSK3A) [nM] | IC50 (GSK3B [1]) [nM] | IC50 (GSK3B [2]; read-out: Enzyme GSK3β (IC50)) [nM] | IC50 (human GSK3α; Enzyme GSK3α (IC50)) [nM] | IC50 (GSK3B [2]; Enzyme GSK3β (IC50)) [nM] | Km (GSK3α or GSK3B) [µM] | reversal of mild aging phenotypes of GSK3α knockout mice (GSK3α knockout mice)
Nc1ncnc2c1ncn2[C@@H]1O[C@H](COP(=O)(O)OP(=O)(O)OP(=O)(O)O)[C@@H](O)[C@H]1O [ATP, adenosine-5′-triphosphate] | – | – | – | – | – | – | 10 to 15 | –
Cc1cc(CC(=O)O)cc(C)c1-n1cnc(N)c(C(=O)Nc2cncc([C@H]3CCCCN3)c2)c1=O [Example 207, (R)-2-(4-(4-amino-6-oxo-5-((5-(piperidin-2-yl)pyridin-3-yl)carbamoyl)pyrimidin-1 (6H)-yl)-3,5-dimethylphenyl) acetic acid] | – | 966 | 25000 | – | 5.3 | 234 | – | –
CCOc1c(CN)cccc1NC(=O)c1c(N)ncn(-c2c(Cl)cccc2Cl)c1=O [Example 220, 4-amino-N-(3-(aminomethyl)-2-ethoxyphenyl)-1-(2,6-dichlorophenyl)-6-oxo-1,6-dihydropyrimidine-5-carboxamide] | 11.7 | 8.1 | 259 | 308 | – | – | – | –
CO[C@H]1C[C@@H]2CC[C@@H](C)[C@@](O)(O2)C(=O)C(=O)N2CCCC[C@H]2C(=O)O[C@H]([C@H](C)C[C@@H]2CC[C@@H](OCCO)[C@H](OC)C2)CC(=O)[C@H](C)/C=C(\C)[C@@H](O)[C@@H](OC)C(=O)[C@H](C)C[C@H](C)/C=C/C=C/C=C/1C [everolimus] | – | – | – | – | – | – | – | could be reversed

More lines, in order of falling IC50 (GSK3A), values ahead:

IC50 (human GSK3α; read-out: Enzyme GSK3α (IC50)) [nM] | IC50 (GSK3A) [nM] | IC50 (GSK3B [1]) [nM] | IC50 (GSK3B [2]; read-out: Enzyme GSK3β (IC50)) [nM] | IC50 (human GSK3α; Enzyme GSK3α (IC50)) [nM] | IC50 (GSK3B [2]; Enzyme GSK3β (IC50)) [nM] | SMILES | Km (GSK3α or GSK3B) [µM] | reversal of mild aging phenotypes of GSK3α knockout mice (GSK3α knockout mice)
15.6 | 7.3 | 235 | 400 | – | – | COc1c(CN)cccc1NC(=O)c1c(N)ncn(-c2c(Cl)cccc2Cl)c1=O [Example 221, 4-amino-N-(3-(aminomethyl)-2-methoxyphenyl)-1-(2,6-dichlorophenyl)-6-oxo-1,6-dihydropyrimidine-5-carboxamide trifluoroacetate] | – | –
5.2 | 5.9 | 300 | 383 | – | – | Nc1ncn(-c2c(Cl)cc(N3CCC3)cc2Cl)c(=O)c1C(=O)Nc1cncc([C@@H]2CCCCN2)c1 [Example 209, (S)-4-amino-1-(4-(azetidin-1-yl)-2,6-dichlorophenyl)-6-oxo-N-(5-(piperidin-2-yl)pyridin-3-yl)-1,6-dihydropyrimidine-5-carboxamide] | – | –
5 | 3.7 | 204 | 238 | – | – | COc1cc(C)c(-n2cnc(N)c(C(=O)Nc3cncc([C@H]4CCCCN4)c3)c2=O)c(C)c1 [Example 205, (R)-4-amino-1-(4-methoxy-2,6-dimethylphenyl)-6-oxo-N-(5-(piperidin-2-yl)pyridin-3-yl)-1,6-dihydropyrimidine-5-carboxamide] | – | –
5.6 | 3.4 | 173 | 293 | – | – | Cc1cc(C(F)(F)F)cc(C)c1-n1cnc(N)c(C(=O)Nc2cncc([C@H]3CCCCN3)c2)c1=O [Example 216, (R)-4-amino-1-(2,6-dimethyl-4-(trifluoromethyl)phenyl)-6-oxo-N-(5-(piperidin-2-yl)pyridin-3-yl)-1,6-dihydropyrimidine-5-carboxamide] | – | –
